Data as given in patent US6583333B1, “Lymphoma-susceptible transgenic mice and methods for studying drug sensitivity of lymphomas” (Cold Spring Harbor Laboratory, priority 1998, dated 2003).

Tests used:
[1] = tested on: transplanted Eμ-myc lymphoma cells in C57BL/6 mice; test: Tumor transplantation into syngeneic mice, response to treatment by palpation; type: in vivo, mouse; details: 10^6 cells by tail vein into C57BL/6, 10 mg/kg, compared with primary tumors, FIG. 5
Description: Upon discovery of tumors in a Eμ-myc transgenic mouse, lymphoma cells were harvested, and 10^6 cells were immediately transplanted into multiple C57BL/6 mice (Taconic Laboratories) by tail vein injection. Tumors were allowed to form (usually in about two weeks). Treatment with adriamycin was given as in Example 5. […] The results (as assessed by palpation for tumors) plotted in FIG. 5 are from 22 mice with primary tumors, and 10 mice with transplanted tumors.

Eμ-myc/p53^−/− lymphoma = test: White blood cell counts of lymphoma-associated leukemia after treatment; type: in vivo; details: Eμ-myc/p53^−/− mouse, 10 mg/kg, 0-24 hours after treatment, FIG. 6, one mouse
Procedure: Eμ-myc/p53^+ mice (C57BL/6) and Eμ-myc/p53^−/− (C57BL/6 x 129; p53^−/LOH in FIGS. 6 and 7) with leukemia associated with primary lymphoma, were treated with either adriamycin at 10 mg/kg of body weight or with 6 Gy of whole body gamma-irradiation. Blood samples were taken and white blood cells were counted in a hemocytometer at 0, 4, 8, 12 and 24 hours after treatment. […] The data plotted in FIGS. 6 and 7 are from one treated mouse of each genotype.

[2] = tested on: primary myc-induced lymphomas in Eμ-myc transgenic mice; test: Response to therapy of primary myc-induced lymphomas (remission/relapse by palpation and blood smears); type: in vivo, mouse; details: single treatment 10 mg/kg intraperitoneal, FIG. 4
Procedure: Eμ-myc transgenic mice were treated with 10 mg/kg body weight adriamycin (maximum tolerated dose) by intraperitoneal injection using adriamycin freshly resuspended in water to a final concentration of 1 mg/ml. Treated mice were monitored for remission and for relapse by palpation and by blood smears to obtain white blood cell counts.
Palpation is performed by gently feeling the mouse for bumps under the skin, which are enlarged lymph nodes.
Blood smears are done by collecting blood from the tail artery, and examining a dried droplet of blood which has been smeared on a glass microscope slide to be one cell layer thick at the edge. The blood smear is stained after drying, using LEUKOSTAT™ stain (Fisher Diagnostics cat. # CS43A-C). The blood smear can be mounted with Permount™ histological mounting medium (Fisher Scientific). Slides are viewed under 40X or oil emersion. Blood from mice affected by lymphoma are always compared with blood from mice from a normal mouse drawn at the same time.
The numbers of mice used to generate the data in FIG. 4 were 22 (first treatment), 14 (second treatment) and 5 (third treatment).

[3] = tested on: L700 cell line derived from an Eμ-myc (p53^+) tumor; test: Detection of caspase activation (biotin-YVAD-amk labelling, blot); type: cell-based, mouse; details: 0.1 μg/ml, 0, 3, 6 or 9 hours, FIG. 10
Procedure: Procedures were as published in Faleiro, L., et al., EMBO J. 16:2271-2281, 1997). Isolated L700 cells growing in culture dishes were treated with 0.1 μg/ml adriamycin. After 0, 3, 6 or 9 hours, cell lysates were made in the presence of 10 μM biotin-YVAD-amk to label caspases, and the protein concentrations were determined. Protein samples were run on a 15% acrylamide-0.1% SDS gel. Proteins were transferred from the gel to Immobilon P membrane (Millipore). Membranes were washed in methanol and air dried. Dried, baked membranes were incubated in biotinylated horseradish peroxidase at 25 ng/ml. Labeled proteins were visualized with ECL reagent (Amersham).

[4] = tested on: transplanted L1537 cells (homozygous for p53^−); test: Drug sensitivity of transplanted tumor cell line L1537; type: in vivo, mouse; details: two C57BL/6 mice, 10 mg/kg
Procedure: (§1) Eμ-myc lymphomas were cultured using feeder layers (see Example 7). Several of these cell lines were transplanted into syngeneic C57BL/6 recipients by injection of 10^6 cells into the tail vein. Tumor-bearing animals were assessed for response to 10 mg/kg adriamycin therapy, by palpation for tumors.
Tumor cell line L1537 was derived from an Eμ-myc/p53^+/− lymphoma and was tested as homozygous for p53^−. Tumor cells were transplanted, by the method described above, into two C57BL/6 mice.

[5] = tested on: Eμ-myc lymphomas from p53^+/− mice; test: Effect of p53 defect on therapy in Eμ-myc/p53^+/− mice; type: in vivo, mouse; details: 10 Eμ-myc/p53^+/− mice, 10 mg/kg, FIG. 14
Procedure: Since most Eμ-myc lymphomas from p53^+/− mice lose the wild-type p53 allele, it was possible to study the response of essentially p53-deficient tumors in mice that were otherwise hemizygous for p53 and not prone to thymic lymphoma (see strategy in FIG. 13). […] The response of Eμ-myc lymphomas with p53 defects to 10 mg/kg adriamycin therapy resembled that of Eμ-myc/p53^+/+ lymphomas following their second relapse (See FIG. 4).

[6] = tested on: Eμ-myc lymphoma cell line L1025; test: In vitro sensitivity of lymphoma cell lines, viability by trypan blue exclusion; type: cell-based, mouse; details: line L1025 from a resistant tumor, 24-hour treatment, FIG. 8
Procedure: Several lymphoma lines have been isolated from Eμ-myc mice in which the response to adriamycin of the original tumor was known. Eμ-myc lymphoma cell lines cultured in vitro were tested for their sensitivity to adriamycin. Lymphocytes were counted. The cells were spun down and resuspended in pre-conditioned B cell media (media that has been on feeder cells for 24 hours) at a concentration of 2×10^6 cells/ml. 10^6 cells were seeded per well of a tissue culture plate, in 0.5 ml. Adriamycin was suspended in pre-conditioned B cell media at twice the final concentration. Final concentrations of adriamycin were 0.25, 0.05, 0.075, 0.1, 0.5 and 1.0 μg/ml. 0.5 of medium was added to each well, to a final volume of 1 ml. Cells were incubated for 24 hours at 37° C. Cells were transferred from the wells to Eppendorf tubes on ice, and centrifuged at 2500 rpm for 5 minutes at 4° C. The medium was poured off the cell pellets, leaving about 200 μl of medium in each tube. One drop of trypan blue dye was added to each tube, and a total of 200 cells per sample were counted under a microscope. Live cells exclude trypan blue and appear white; dead cells take up trypan blue and appear blue.
L877 has been tested as Eμ-myc/p53^−/−; the other cell lines are derived from Eμ-myc/p53^+ mice and are presumably p53^+/+.

[7] = tested on: secondary tumors arising from transplanted L885 cells; test: Drug sensitivity of transplanted tumor cell line L885, by palpation; type: in vivo, mouse; details: 10 mg/kg, 9 secondary tumors vs 22 primary tumors, FIG. 11
Procedure: as §1

Structure (SMILES): COc1cccc2c1C(=O)c1c(O)c3c(c(O)c1C2=O)C[C@@](O)(C(=O)CO)C[C@@H]3O[C@H]1C[C@H](N)[C@H](O)[C@H](C)O1 [adriamycin]
- response of transplanted (secondary) tumors to treatment [1]: A higher percentage of these secondary tumors failed to respond to treatment
- sensitivity of lymphoma-associated leukemia (white blood cell counts) (Eμ-myc/p53^−/− lymphoma): insensitive
- response to therapy (time to relapse by palpation) [2]: the vast majority of the mice respond to therapy
- caspase activation [3]: caspase activation following drug treatment
- response of transplanted L1537 tumors to therapy [4]: Both mice failed to respond
- response to therapy (percentage of tumor-free mice) [5]: almost completely refractory to therapy
- sensitivity in cell culture (percent viable cells) [6]: sensitive in cell culture
- response of transplanted L885 tumors to therapy [7]: virtually indistinguishable from that seen in the primary, non-transplanted lymphomas
